Measurements taken from ChEMBL document CHEMBL1127778, “Structure-activity relationship of novel distamycin a derivatives : synthesis and antitumor activity” (Bioorg Med Chem Lett, 1994).
≈ marks a conversion by molar mass, not a printed value.

Experiments:
L1210 [1] = experiment: In vitro inhibitory activity against FCE 24517 resistant L1210 leukemia cell lines ( ratio between IC50 values on resistant cells and sensitive cells); assay type: functional, Mus musculus
L1210 [2] = experiment: In vitro inhibitory activity against Doxorubicin resistant L1210 leukemia cell lines ( ratio between IC50 values on resistant cells and sensitive cells); assay type: functional, Mus musculus
L1210 [3] = experiment: The activity in vitro on L1210 murine leukemia cells, activity expressed as IC50; assay type: functional, cell-based, Mus musculus
Mus musculus = experiment: Median survival time of treated mice / Median survival time of controls x100 was measured in vivo on L1210 murine leukemia cells; assay type: functional
L1210 [4] = experiment: Optimal dose was measured in vivo on L1210 murine leukemia cells in CD2F1 mice(ip); assay type: functional, Mus musculus
[5] = Mus musculus, L1210, read-out: IC50

C=C(Br)C(=O)O
R.I (L1210 [1]): 0.5 | R.I (L1210 [2]): 1.1 | IC50 (L1210 [3]; [5]): 18.8 µg/mL (≈ 125 µM)

O=C(O)C1CO1 (stereo not drawn)
R.I (L1210 [1]): 0.5 | R.I (L1210 [2]): 1 | IC50 (L1210 [3]; l1210): 131.397 µg/mL (≈ 1490 µM)

Cl.Cn1cc(NC(=O)c2cc(NC(=O)c3cc(NC(=O)c4cc(NC=O)cn4C)cn3C)cn2C)cc1C(=O)NCCC(=N)N
R.I (L1210 [1]): 169.9 | R.I (L1210 [2]): 175.4 | IC50 (L1210 [3]; [5]): 0.285 µg/mL

Cl.Cn1cc(NC(=O)c2cc(NC(=O)c3cc(NC(=O)c4cc(NC(=O)C5CO5)cn4C)cn3C)cn2C)cc1C(=O)NCCC(=N)N (stereo not drawn)
R.I (L1210 [1]): 24.1 | T/C (Mus musculus): 188% | R.I (L1210 [2]): 1.7 | OD (L1210 [4]): 3.125 mg/kg | IC50 (L1210 [3]; [5]): 0.0389 µg/mL

C=C(Cl)C(=O)Nc1cc(C(=O)Nc2cc(C(=O)Nc3cc(C(=O)NCCC(=N)N)n(C)c3)n(C)c2)n(C)c1.Cl
R.I (L1210 [1]): 24.8 | T/C (Mus musculus): 184% | R.I (L1210 [2]): 40.3 | OD (L1210 [4]): 10 mg/kg | IC50 (L1210 [3]; [5]): 0.056 µg/mL

C=C(Br)C(=O)Nc1cc(C(=O)Nc2cc(C(=O)Nc3cc(C(=O)NCCC(=N)N)n(C)c3)n(C)c2)n(C)c1.Cl
R.I (L1210 [1]): 11.4 | T/C (Mus musculus): 175% | R.I (L1210 [2]): 8.8 | OD (L1210 [4]): 12.5 mg/kg | IC50 (L1210 [3]; [5]): 0.0496 µg/mL

Cl.Cn1cc(NC(=O)c2cc(NC(=O)c3cc(NC(=O)C4CO4)cn3C)cn2C)cc1C(=O)NCCC(=N)N (stereo not drawn)
R.I (L1210 [1]): 44.4 | T/C (Mus musculus): 188% | R.I (L1210 [2]): 7.1 | OD (L1210 [4]): 50 mg/kg | IC50 (L1210 [3]; [5]): 0.229 µg/mL

Cl.Cn1cc(NC(=O)c2cc(NC(=O)c3cc(NC(=O)c4cc(NC(=O)c5ccc(N(CCCl)CCCl)cc5)cn4C)cn3C)cn2C)cc1C(=O)NCCC(=N)N
R.I (L1210 [1]): 65.4 | T/C (Mus musculus): 138% | OD (L1210 [4]): 0.39 mg/kg | IC50 (L1210 [3]; [5]): 0.0163 µg/mL

C=C(Br)C(=O)Nc1cc(C(=O)Nc2cc(C(=O)Nc3cc(C(=O)Nc4cc(C(=O)NCCC(=N)N)n(C)c4)n(C)c3)n(C)c2)n(C)c1.Cl
R.I (L1210 [1]): 27 | T/C (Mus musculus): 206% | R.I (L1210 [2]): 3.8 | OD (L1210 [4]): 3.125 mg/kg | IC50 (L1210 [3]; [5]): 0.0047 µg/mL

C=C(Cl)C(=O)Nc1cc(C(=O)Nc2cc(C(=O)Nc3cc(C(=O)Nc4cc(C(=O)NCCC(=N)N)n(C)c4)n(C)c3)n(C)c2)n(C)c1.Cl
R.I (L1210 [1]): 69.6 | T/C (Mus musculus): 171% | R.I (L1210 [2]): 59.9 | OD (L1210 [4]): 3.125 mg/kg | IC50 (L1210 [3]; [5]): 0.0027 µg/mL

Cn1cc(NC(=O)c2cc(NC(=O)c3cc(NC=O)cn3C)cn2C)cc1C(=O)NCCC(=N)N [STALLIMYCIN]
R.I (L1210 [1]): 14.1 | T/C (Mus musculus): 113% | R.I (L1210 [2]): 45.6 | OD (L1210 [4]): 200 mg/kg | IC50 (L1210 [3]; [5]): 5.22 µg/mL (≈ 10.8 µM)

Cl.Cn1cc(NC(=O)c2cc(NC(=O)c3cc(NC(=O)c4ccc(N(CCCl)CCCl)cc4)cn3C)cn2C)cc1C(=O)NCCC(=N)N [TALLIMUSTINE CHLORIDE]
R.I (L1210 [1]): 21.7 | T/C (Mus musculus): 175% | R.I (L1210 [2]): 28 | OD (L1210 [4]): 3.125 mg/kg | IC50 (L1210 [3]; [5]): 0.0244 µg/mL
